From patent publication US20140154315A1, “Hydrophobic Preparations” (VAXCINE LTD., priority 2011, published 2014) come the findings set out here.

This assay concerns collagen-induced arthritis (CIA) in DBA-1 mice. The assay is described as follows: Oral collagen II preparation in mouse collagen-induced arthritis model, Example 10. It is filed as in vivo. As to conditions: 20 ug dose, oral gavage 4 times before CIA induction; FIGS. 1 and 2. On the procedure: • 1. Ten-twelve week old male DBA-1 mice were weighed and divided into 3 groups (n=8/group) as outlined below. All groups were treated orally (by gavage) 4 times (days −10, −7, −5 & −3) prior to induction of collagen-induced arthritis (CIA) by injection of 100 ug collagen in Complete Freunds Adjuvant at the base of the tail. • 2. Arthritis was induced in all animals on day 0, followed by a boost on day 21, and incidence and severity assessed and scored on days 5, 7, 9, 12, 14, 16, 19 and 21 after the boost. Three treatment groups with 8 animals per group were used as outlined below: • (i). CIA+gavage with oil alone • (ii). CIA+gavage with oil containing bovine collagen II (10 μg/dose) • (iii). CIA+gavage with bovine collagen II ([…])
Clinical scores of arthritis incidence (% of animals in each group affected with arthritis of any severity in any number of joints) and arthritis severity (the severity of disease in each individual mouse) was performed after CIA induction for the duration of the experiment. A standard arthritis scoring system was used as outlined below. Each paw is evaluated for swelling and deformity, scored and a total calculated for each animal.
Score 0: No arthritis Score 1:1-2 toes affected only Score 2: 3 or >toes and/or swelling of the paw (metacarpus/metatarsus) Score 3: swelling of the carpus/tarsus Score 4: deformity with ankylosis of the carpus/tarsus • 3. […]

Take “collagen alone: bovine collagen II given by gavage without oil formulation”: the “number of animals suffering from arthritis (incidence)” value is recorded as “reduction in the number of animals suffering from arthritis”.
